Source: ChEMBL document CHEMBL1131309, “Isoindol-1-one analogues of 4-(2'-methoxyphenyl)-1-[2'-[N-(2"-pyridyl)-p-iodobenzamido]ethyl]pipera zine (p-MPPI) as 5-HT1A receptor ligands” (J Med Chem, 1998)
pKi: −log10 of the molar value.

Experiments:
[1] = biological target: T1, 5-hydroxytryptamine receptor 1A (Rattus norvegicus, UniProt P19327)
T1 sequence (P19327 whole entry): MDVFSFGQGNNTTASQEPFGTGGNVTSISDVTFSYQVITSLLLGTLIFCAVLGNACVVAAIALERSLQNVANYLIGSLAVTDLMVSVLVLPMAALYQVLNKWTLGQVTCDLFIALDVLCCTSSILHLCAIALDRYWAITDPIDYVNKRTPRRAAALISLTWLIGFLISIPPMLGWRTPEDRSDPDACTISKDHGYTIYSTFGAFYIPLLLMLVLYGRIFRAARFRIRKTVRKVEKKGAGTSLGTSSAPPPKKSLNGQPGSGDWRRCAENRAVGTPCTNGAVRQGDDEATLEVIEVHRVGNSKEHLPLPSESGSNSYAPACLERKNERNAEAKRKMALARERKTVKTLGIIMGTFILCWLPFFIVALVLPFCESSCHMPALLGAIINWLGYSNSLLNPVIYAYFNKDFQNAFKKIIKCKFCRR
Description: (§1) In vitro binding affinity for 5-hydroxytryptamine 1A receptor in rat hippocampal membranes by [125I]-labeled agonist displacement.

Rattus norvegicus [2] = test: Biodistribution was measured in blood of rat by injecting the radiolabeled compound intravenously and the value measured after 2 min; format: ADME, organism-based; settings: in vivo, iv
Rattus norvegicus [3] = test: Biodistribution was measured in rat muscle by injecting the radiolabeled compound intravenously and the value measured after 30 min; format: ADME, organism-based, Muscle tissue; settings: in vivo, iv, 0.5 h
Rattus norvegicus [4] = test: Biodistribution was measured in rat muscle by injecting the radiolabeled compound intravenously and the value measured after 60 min; format: ADME, organism-based, Muscle tissue; settings: in vivo, iv, 1 h
Rattus norvegicus [5] = test: Biodistribution was measured in rat spleen by injecting the radiolabeled compound intravenously and the value measured after 60 min; format: ADME, organism-based; settings: in vivo, iv, 1 h
Rattus norvegicus [6] = test: Biodistribution was measured in rat striatum by injecting the radiolabeled compound intravenously and the value measured after 2 min; format: ADME, organism-based; settings: in vivo, iv
Rattus norvegicus [7] = test: Biodistribution was measured in rat striatum by injecting the radiolabeled compound intravenously and the value measured after 30 min; format: ADME, organism-based; settings: in vivo, iv, 0.5 h
Rattus norvegicus [8] = test: Biodistribution was measured in rat striatum by injecting the radiolabeled compound intravenously and the value measured after 60 min; format: ADME, organism-based; settings: in vivo, iv, 1 h
Rattus norvegicus [9] = test: Biodistribution was measured in rat thyroid by injecting the radiolabeled compound intravenously and the value measured after 2 min; format: ADME, organism-based, Thyroid gland; settings: in vivo, iv
Rattus norvegicus [10] = test: Biodistribution was measured in rat thyroid by injecting the radiolabeled compound intravenously and the value measured after 30 min; format: ADME, organism-based, Thyroid gland; settings: in vivo, iv, 0.5 h
Rattus norvegicus [11] = test: Biodistribution was measured in rat thyroid by injecting the radiolabeled compound intravenously and the value measured after 60 min; format: ADME, organism-based, Thyroid gland; settings: in vivo, iv, 1 h
Rattus norvegicus [12] = test: Biodistribution was measured in rat skin by injecting the radiolabeled compound intravenously and the value measured after 30 min; format: ADME, organism-based, Zone of skin; settings: in vivo, iv, 0.5 h
Rattus norvegicus [13] = test: Biodistribution was measured in rat spleen by injecting the radiolabeled compound intravenously and the value measured after 2 min; format: ADME, organism-based; settings: in vivo, iv
Rattus norvegicus [14] = test: Biodistribution was measured in rat spleen by injecting the radiolabeled compound intravenously and the value measured after 30 min; format: ADME, organism-based; settings: in vivo, iv, 0.5 h
Rattus norvegicus [15] = test: Biodistribution was measured in rat liver by injecting the radiolabeled compound intravenously and the value measured after 30 min; format: ADME, organism-based; settings: in vivo, iv, 0.5 h
Rattus norvegicus [16] = test: Biodistribution was measured in rat liver by injecting the radiolabeled compound intravenously and the value measured after 60 min; format: ADME, organism-based; settings: in vivo, iv, 1 h
Rattus norvegicus [17] = test: Biodistribution was measured in rat lung by injecting the radiolabeled compound intravenously and the value measured after 2 min; format: ADME, organism-based; settings: in vivo, iv
Rattus norvegicus [18] = test: Biodistribution was measured in rat lung by injecting the radiolabeled compound intravenously and the value measured after 30 min; format: ADME, organism-based; settings: in vivo, iv, 0.5 h
Rattus norvegicus [19] = test: Biodistribution was measured in rat lung by injecting the radiolabeled compound intravenously and the value measured after 60 min; format: ADME, organism-based; settings: in vivo, iv, 1 h
Rattus norvegicus [20] = test: Biodistribution was measured in rat muscle by injecting the radiolabeled compound intravenously and the value measured after 2 min; format: ADME, organism-based, Muscle tissue; settings: in vivo, iv
Rattus norvegicus [21] = test: Biodistribution was measured in blood of rat by injecting the radiolabeled compound intravenously and the value measured after 60 min; format: ADME, organism-based; settings: in vivo, iv, 1 h
[22] = Biodistribution was measured in hippocampus region(HP/CB) by injecting the radiolabeled compound intravenously and the value measured after 2 min; format: ADME, organism-based; settings: in vivo, iv
[23] = Biodistribution was measured in hippocampus region(HP/CB) by injecting the radiolabeled compound intravenously and the value measured after 30 min; format: ADME, organism-based; settings: in vivo, iv, 0.5 h
[24] = Biodistribution was measured in hippocampus region(HP/CB) by injecting the radiolabeled compound intravenously and the value measured after 60 min; format: ADME, organism-based; settings: in vivo, iv, 1 h
Rattus norvegicus [25] = test: Biodistribution was measured in rat brain by injecting the radiolabeled compound intravenously and the value measured after 2 min; format: ADME, organism-based; settings: in vivo, iv
Rattus norvegicus [26] = test: Biodistribution was measured in rat brain by injecting the radiolabeled compound intravenously and the value measured after 30 min; format: ADME, organism-based; settings: in vivo, iv, 0.5 h
Rattus norvegicus [27] = test: Biodistribution was measured in rat brain by injecting the radiolabeled compound intravenously and the value measured after 60 min; format: ADME, organism-based; settings: in vivo, iv, 1 h
Rattus norvegicus [28] = test: Biodistribution was measured in rat cerebellum by injecting the radiolabeled compound intravenously and the value measured after 30 min; format: ADME, organism-based; settings: in vivo, iv, 0.5 h
Rattus norvegicus [29] = test: Biodistribution was measured in rat cerebellum by injecting the radiolabeled compound intravenously and the value measured after 60 min; format: ADME, organism-based; settings: in vivo, iv, 1 h
Rattus norvegicus [30] = test: Biodistribution was measured in rat cortex by injecting the radiolabeled compound intravenously and the value measured after 2 min; format: ADME, organism-based; settings: in vivo, iv
Rattus norvegicus [31] = test: Biodistribution was measured in rat cortex by injecting the radiolabeled compound intravenously and the value measured after 30 min; format: ADME, organism-based; settings: in vivo, iv, 0.5 h
Rattus norvegicus [32] = test: Biodistribution was measured in rat cortex by injecting the radiolabeled compound intravenously and the value measured after 60 min; format: ADME, organism-based; settings: in vivo, iv, 1 h
Rattus norvegicus [33] = test: Biodistribution was measured in rat heart by injecting the radiolabeled compound intravenously and the value measured after 2 min; format: ADME, organism-based; settings: in vivo, iv
Rattus norvegicus [34] = test: Biodistribution was measured in rat heart by injecting the radiolabeled compound intravenously and the value measured after 30 min; format: ADME, organism-based; settings: in vivo, iv, 0.5 h
Rattus norvegicus [35] = test: Biodistribution was measured in rat heart by injecting the radiolabeled compound intravenously and the value measured after 60 min; format: ADME, organism-based; settings: in vivo, iv, 1 h
Rattus norvegicus [36] = test: Biodistribution was measured in rat hippocampus by injecting the radiolabeled compound intravenously and the value measured after 2 min; format: ADME, organism-based; settings: in vivo, iv
Rattus norvegicus [37] = test: Biodistribution was measured in rat hippocampus by injecting the radiolabeled compound intravenously and the value measured after 60 min; format: ADME, organism-based; settings: in vivo, iv, 1 h
Rattus norvegicus [38] = test: Biodistribution was measured in rat kidney by injecting the radiolabeled compound intravenously and the value measured after 2 min; format: ADME, organism-based; settings: in vivo, iv
Rattus norvegicus [39] = test: Biodistribution was measured in rat kidney by injecting the radiolabeled compound intravenously and the value measured after 30 min; format: ADME, organism-based; settings: in vivo, iv, 0.5 h
Rattus norvegicus [40] = test: Biodistribution was measured in rat liver by injecting the radiolabeled compound intravenously and the value measured after 2 min; format: ADME, organism-based; settings: in vivo, iv
Rattus norvegicus [41] = test: Biodistribution was measured in rat cerebellum by injecting the radiolabeled compound intravenously and the value measured after 2 min; format: ADME, organism-based; settings: in vivo, iv
Rattus norvegicus [42] = test: Biodistribution was measured in rat hippocampus by injecting the radiolabeled compound intravenously and the value measured after 30 min; format: ADME, organism-based; settings: in vivo, iv, 0.5 h
Rattus norvegicus [43] = test: Biodistribution was measured in rat skin by injecting the radiolabeled compound intravenously and the value measured after 60 min; format: ADME, organism-based, Zone of skin; settings: in vivo, iv, 1 h
Rattus norvegicus [44] = test: Biodistribution was measured in blood of rat by injecting the radiolabeled compound intravenously and the value measured after 30 min; format: ADME, organism-based; settings: in vivo, iv, 0.5 h
Rattus norvegicus [45] = test: Biodistribution was measured in rat kidney by injecting the radiolabeled compound intravenously and the value measured after 60 min; format: ADME, organism-based; settings: in vivo, iv, 1 h
[46] = biological target: T1, 5-hydroxytryptamine receptor 1A; remark: listed apart in the source
Description: as §1

COc1ccccc1N1CCN(CCN(C(=O)c2ccc(I)cc2)c2ccccn2)CC1
pKi [1]: 9.70

COc1ccccc1N1CCN(CCN2C(=O)c3cc(I)ccc3C2c2ccccc2)CC1 (stereo not drawn)
Biodistribution (Rattus norvegicus [2]): 2.84 % dose organ-1 | Biodistribution (Rattus norvegicus [3]): 14.35 % dose organ-1 | Biodistribution (Rattus norvegicus [4]): 8.83 % dose organ-1 | Biodistribution (Rattus norvegicus [5]): 0.15 % dose organ-1 | Biodistribution (Rattus norvegicus [6]): 0.204 % dose organ-1 | Biodistribution (Rattus norvegicus [7]): 0.093 % dose organ-1 | Biodistribution (Rattus norvegicus [8]): 0.035 % dose organ-1 | Biodistribution (Rattus norvegicus [9]): 0.073 % dose organ-1 | Biodistribution (Rattus norvegicus [10]): 0.05 % dose organ-1 | Biodistribution (Rattus norvegicus [11]): 0.06 % dose organ-1 | Biodistribution (Rattus norvegicus [12]): 5.8 % dose organ-1 | Biodistribution (Rattus norvegicus [13]): 0.26 % dose organ-1 | Biodistribution (Rattus norvegicus [14]): 0.22 % dose organ-1 | Biodistribution (Rattus norvegicus [15]): 18.65 % dose organ-1 | Biodistribution (Rattus norvegicus [16]): 10.76 % dose organ-1 | Biodistribution (Rattus norvegicus [17]): 2.05 % dose organ-1 | Biodistribution (Rattus norvegicus [18]): 0.7 % dose organ-1 | Biodistribution (Rattus norvegicus [19]): 0.56 % dose organ-1 | Biodistribution (Rattus norvegicus [20]): 9.45 % dose organ-1 | Biodistribution (Rattus norvegicus [21]): 1.22 % dose organ-1 | Biodistribution [22]: 0.87 % dose organ-1 | Biodistribution [23]: 1.12 % dose organ-1 | Biodistribution [24]: 1.06 % dose organ-1 | Biodistribution (Rattus norvegicus [25]): 0.26 % dose organ-1 | Biodistribution (Rattus norvegicus [26]): 0.11 % dose organ-1 | Biodistribution (Rattus norvegicus [27]): 0.04 % dose organ-1 | Biodistribution (Rattus norvegicus [28]): 0.08 % dose organ-1 | Biodistribution (Rattus norvegicus [29]): 0.035 % dose organ-1 | Biodistribution (Rattus norvegicus [30]): 0.242 % dose organ-1 | Biodistribution (Rattus norvegicus [31]): 0.081 % dose organ-1 | Biodistribution (Rattus norvegicus [32]): 0.028 % dose organ-1 | Biodistribution (Rattus norvegicus [33]): 1.42 % dose organ-1 | Biodistribution (Rattus norvegicus [34]): 0.3 % dose organ-1 | Biodistribution (Rattus norvegicus [35]): 0.15 % dose organ-1 | Biodistribution (Rattus norvegicus [36]): 0.177 % dose organ-1 | Biodistribution (Rattus norvegicus [37]): 0.037 % dose organ-1 | Biodistribution (Rattus norvegicus [38]): 4.01 % dose organ-1 | Biodistribution (Rattus norvegicus [39]): 2.32 % dose organ-1 | Biodistribution (Rattus norvegicus [40]): 21.36 % dose organ-1 | Biodistribution (Rattus norvegicus [41]): 0.202 % dose organ-1 | Biodistribution (Rattus norvegicus [42]): 0.09 % dose organ-1 | Biodistribution (Rattus norvegicus [43]): 4.96 % dose organ-1 | Biodistribution (Rattus norvegicus [44]): 1.92 % dose organ-1 | Biodistribution (Rattus norvegicus [45]): 1.42 % dose organ-1 | pKi [1]: 10.16 | pKi [46]: 10.16

COc1ccccc1N1CCN(CCN2C(=O)c3cc([N+](=O)[O-])ccc3C2(O)c2ccccc2)CC1 (stereo not drawn)
pKi [1]: 9.47
